# In PMC9558907, “Synthesis and pharmacological evaluation of newly detected synthetic cannabinoid receptor agonists AB-4CN-BUTICA, MMB-4CN-BUTINACA, MDMB-4F-BUTICA, MDMB-4F-BUTINACA and their analogs” (Frontiers in Psychiatry, 2022):
# Experiments:
# human CB1 [1] = target: T1, human CB1 (Homo sapiens, UniProt P21554); experiment: fluorescence-based membrane potential assay (GIRK activation) in AtT20 cells; type: cell-based; parameters: expressed in transfected cells; host or cells: mouse AtT20 FlpIn cells; conditions: for hCB1 Emax ±SEM: normalised to 1 μM CP55,940; for EC50: hCB1 EC50, AtT20-hCB1, value in brackets after pEC50; for hCB1 maximal response at 10 μM (footnote d): highest concentration tested, curve not fitted
# T1 sequence (P21554 whole entry): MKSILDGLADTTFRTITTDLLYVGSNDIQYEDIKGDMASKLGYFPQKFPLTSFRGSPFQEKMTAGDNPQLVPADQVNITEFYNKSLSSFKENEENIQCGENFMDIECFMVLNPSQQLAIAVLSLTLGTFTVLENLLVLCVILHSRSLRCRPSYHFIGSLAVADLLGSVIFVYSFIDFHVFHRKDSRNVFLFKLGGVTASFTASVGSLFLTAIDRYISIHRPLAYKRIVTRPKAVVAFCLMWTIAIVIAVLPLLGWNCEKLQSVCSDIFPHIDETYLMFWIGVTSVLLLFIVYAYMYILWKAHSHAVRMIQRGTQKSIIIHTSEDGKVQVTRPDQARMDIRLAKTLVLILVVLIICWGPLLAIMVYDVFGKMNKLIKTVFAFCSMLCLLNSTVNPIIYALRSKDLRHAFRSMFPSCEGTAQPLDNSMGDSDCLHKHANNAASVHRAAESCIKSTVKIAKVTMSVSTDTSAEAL
# human CB2 [2] = target: T2, human CB2 (Homo sapiens, UniProt P34972); experiment: as above; type: cell-based; parameters: expressed in transfected cells; host or cells: mouse AtT20 FlpIn cells; conditions: for hCB2 Emax ±SEM: normalised to 1 μM CP55,940
# T2 sequence (P34972 whole entry): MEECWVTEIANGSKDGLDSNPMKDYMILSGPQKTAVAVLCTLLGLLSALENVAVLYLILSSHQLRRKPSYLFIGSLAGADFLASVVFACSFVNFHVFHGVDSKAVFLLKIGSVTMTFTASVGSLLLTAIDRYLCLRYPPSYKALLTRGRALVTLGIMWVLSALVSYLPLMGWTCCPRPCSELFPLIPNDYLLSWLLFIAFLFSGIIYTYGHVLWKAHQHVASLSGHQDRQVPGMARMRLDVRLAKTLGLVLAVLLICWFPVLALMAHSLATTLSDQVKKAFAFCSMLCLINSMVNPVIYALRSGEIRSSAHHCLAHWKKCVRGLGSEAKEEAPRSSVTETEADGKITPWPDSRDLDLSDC
# human CB1 [3] = target: T1, human CB1; experiment: competitive radioligand binding assay, displacement of [3H]CP55,940, HEK cell membranes; parameters: expressed in transfected cells; host or cells: HEK293 cells, P2 membrane preparation; conditions: [3H]CP55,940 1 nM
# human CB2 [4] = target: T2, human CB2; experiment: as above; parameters: expressed in transfected cells; host or cells: HEK293 cells, P2 membrane preparation; conditions: [3H]CP55,940 1 nM
# CB1 = tested on: CB1; parameters: method as in PMID 26134475; conditions: cited from earlier work
# CB2 = tested on: CB2; parameters: method as in PMID 26134475; conditions: cited from earlier work
# [5] = hCB2 EC50, AtT20-hCB2, value in brackets after pEC50
# [6] = hCB1 Ki, value in brackets after pKi
# [7] = hCB2 Ki, value in brackets after pKi
# [8] = hCB1 pKi ±SEM, mean ± SEM of 3 to 6 independent experiments
# [9] = hCB2 pKi ±SEM, mean ± SEM of 3 to 6 independent experiments
Structure (SMILES),melting point [°C],hCB1 Emax ±SEM (human CB1 [1]; AtT20-hCB1),EC50 (human CB1 [1]) [nM],hCB2 Emax ±SEM (human CB2 [2]; AtT20-hCB2),EC50 (human CB2 [2]; [5]) [nM],Ki (human CB1 [3]; [6]) [nM],Ki (human CB2 [4]; [7]) [nM],Ki (human CB1 [3]; [8]) [nM],hCB1 maximal response at 10 μM (footnote d) (human CB1 [1]; AtT20-hCB1),"hCB1 maximal response at 10 μM (footnote d) (human CB1 [1]; AtT20-hCB1, listed as APP-4F-BUTICA (27))","hCB1 pEC50 ±SEM (human CB1 [1]; AtT20-hCB1, DNC = did not converge, ND = < 50% change in fluorescence at 10 μM)",Ki (human CB2 [4]; [9]) [nM],"hCB1 maximal response at 10 μM (footnote d) (human CB1 [1]; AtT20-hCB1, listed as APP-4F-BUT7AICA (33))","EC50 (human CB2 [2]; hCB2 pEC50 ±SEM, AtT20-hCB2) [nM]",Emax at CB1 (CB1) [%],pEC50 at CB1 (CB1),effect at 30 μM at CB2 (CB2) [%]
"CC(C)[C@H](NC(=O)c1cn(CCCCF)c2ccccc12)C(N)=O [Compound 25, (S)-N-(1-amino-3-methyl-1-oxobutan-2-yl)-1-(4-fluorobutyl)-1H-indole-3-carboxamide]",225 to 227,"108 ± 3 % CP55,940",96.5,"97 ± 2 % CP55,940",23.5,1000,82,–,–,–,–,–,–,–,–,–,–
"CC(C)(C)[C@H](NC(=O)c1cn(CCCCF)c2ccccc12)C(N)=O [Compound 26, (S)-N-(1-amino-3,3-dimethyl-1-oxobutan-2-yl)-1-(4-fluorobutyl)-1H-indole-3-carboxamide]",92 to 94,"110 ± 4 % CP55,940",40.4,"105 ± 4 % CP55,940",44.1,–,8,34.7,–,–,–,–,–,–,–,–,–
"NC(=O)[C@H](Cc1ccccc1)NC(=O)c1cn(CCCCF)c2ccccc12 [Compound 27, (S)-N-(1-amino-1-oxo-3-phenylpropan-2-yl)-1-(4-fluorobutyl)-1H-indole-3-carboxamide]",102 to 104,–,–,"108 ± 8 % CP55,940",306,3200,170,3160,submaximal agonist activity,"82 ± 4^d % CP55,940",DNC^b,174,–,–,–,–,–
"CC(C)[C@H](NC(=O)c1nn(CCCCF)c2ccccc12)C(N)=O [Compound 28, (S)-N-(1-amino-3-methyl-1-oxobutan-2-yl)-1-(4-fluorobutyl)-1H-indazole-3-carboxamide]",188 to 190,"107 ± 2 % CP55,940",5.98,"96 ± 1 % CP55,940",4.85,–,8.5,132,–,–,–,–,–,–,–,–,–
"CC(C)(C)[C@H](NC(=O)c1nn(CCCCF)c2ccccc12)C(N)=O [Compound 29, (S)-N-(1-amino-3,3-dimethyl-1-oxobutan-2-yl)-1-(4-fluorobutyl)-1H-indazole-3-carboxamide]",77 to 79,"116± 2 % CP55,940",1.61,"103 ± 2 % CP55,940",5.28,4.07,0.69,–,–,–,–,–,–,–,–,–,–
"NC(=O)[C@H](Cc1ccccc1)NC(=O)c1nn(CCCCF)c2ccccc12 [Compound 30, (S)-N-(1-amino-1-oxo-3-phenylpropan-2-yl)-1-(4-fluorobutyl)-1H-indazole-3-carboxamide]",100 to 103,"103 ± 3 % CP55,940",504,"101 ± 12 % CP55,940",8.35,1380,28.2,–,–,–,–,–,–,–,–,–,–
"CC(C)(C)[C@H](NC(=O)c1cn(CCCCF)c2ncccc12)C(N)=O [Compound 32, (S)-N-(1-amino-3,3-dimethyl-1-oxobutan-2-yl)-1-(4-fluorobutyl)-1H-pyrrolo[2,3-b]pyridine-3-carboxamide]",95 to 96,"112 ± 6 % CP55,940",46,"108 ± 2 % CP55,940",4.99,1300,46,1260,–,–,–,–,–,–,–,–,–
"NC(=O)[C@H](Cc1ccccc1)NC(=O)c1cn(CCCCF)c2ncccc12 [Compound 33, (S)-N-(1-amino-1-oxo-3-phenylpropan-2-yl)-1-(4-fluorobutyl)-1H-pyrrolo[2,3-b]pyridine-3-carboxamide]",153 to 154,–,–,"99 ± 12 % CP55,940",1170,–,2400,> 10000,submaximal agonist activity,–,–,–,"25 ± 14^d % CP55,940",–,–,–,–
"COC(=O)[C@@H](NC(=O)c1cn(CCCCF)c2ccccc12)C(C)C [Compound 34, methyl (1-(4-fluorobutyl)-1H-indole-3-carbonyl)-L-valinate]",111 to 114,"116 ± 3 % CP55,940",76.9,"102 ± 2 % CP55,940",11.4,97.7,26.9,–,–,–,–,–,–,11.2,–,–,–
"COC(=O)[C@H](Cc1ccccc1)NC(=O)c1cn(CCCCF)c2ccccc12 [Compound 35, methyl (1-(4-fluorobutyl)-1H-indole-3-carbonyl)-L-phenylalaninate]",124 to 126,"105 ± 2 % CP55,940",36.6,"100 ± 2 % CP55,940",10.1,270,6.1,–,–,–,–,6.03,–,–,–,–,–
"COC(=O)[C@@H](NC(=O)c1cn(CCCCF)c2ncccc12)C(C)C [Compound 38, methyl (1-(4-fluorobutyl)-1H-pyrrolo[2,3-b]pyridine-3-carbonyl)-L-valinate]",81 to 82,"115 ± 16 % CP55,940",1390,"114 ± 6 % CP55,940",49.6,220,61,224,–,–,–,60.3,–,–,–,–,–
"COC(=O)[C@@H](NC(=O)c1cn(CCCCF)c2ncccc12)C(C)(C)C [Compound 39, methyl (S)-2-(1-(4-fluorobutyl)-1H-pyrrolo[2,3-b]pyridine-3-carboxamido)-3,3-dimethylbutanoate]",56 to 58,"109 ± 3 % CP55,940",22.2,"95 ± 2 % CP55,940",3.88,107,2.14,–,–,–,–,–,–,–,–,–,–
"COC(=O)[C@H](Cc1ccccc1)NC(=O)c1cn(CCCCF)c2ncccc12 [Compound 40, methyl (1-(4-fluorobutyl)-1H-pyrrolo[2,3-b]pyridine-3-carbonyl)-L-phenylalaninate]",109 to 112,"122 ± 10 % CP55,940",637,"110 ± 6 % CP55,940",26.9,880,–,–,–,–,–,28.8,–,–,–,–,–
"CCCCCc1cc(O)c2c(c1)OC(C)(C)[C@@H]1CCC(C)=C[C@@H]21 [THC, Δ^9-tetrahydrocannabinol]",–,–,–,–,–,–,–,–,–,–,–,–,–,–,58,6.76 ± 0.09,32
